# Laboratory results: patent US10617672B2, “Liposome composition co-encapsulating doxorubicin and a prodrug of mitomycin C” (LIPOMEDIX PHARMACEUTICALS LTD., priority 2015, dated 2020)
# Where two headings read alike, the source gives them in different places.
# What was measured:
# [1] = tested on: IGrov-1 ovarian carcinoma cells; test: In vitro cytotoxicity, methylene blue staining, 72 h; assay type: cell-based, human; conditions: IGrov-1 cells, 72 hours at 37° C.
# Experimental: (§1) For comparison, liposomes with entrapped doxorubicin with ammonium sulfate gradient and a coating of polyethyleneglycol (PEG) (available under the tradename DOXIL®), liposomes with the mitomycin C prodrug conjugate incorporated into the lipid bilayer and a coating of PEG (sometimes referred to in the literature by the tradename PROMITIL®) were also evaluated in the cell lines, along with free doxorubicin and liposomes with encapsulated doxorubicin with ammonium alendronate gradient and a coating of PEG (U.S. 2014/0328899, incorporated by reference herein).
# (§2) In the cytotoxicity assay, cells were seeded in 96-multiwell plates. After overnight incubation, the drugs or liposome compositions were added at various concentrations and cells were incubated further for a total exposure of 72 hrs. Cell growth was evaluated colorimetrically with methylene blue staining and growth rates and IC50 values were calculated as known in the literature.
# [2] = tested on: N-87 gastric carcinoma cells; test: as above; assay type: cell-based, human; conditions: N-87 cells, 72 hours at 37° C.
# Experimental: as §1, §2
# [3] = tested on: T24 bladder cancer carcinoma cells; test: as above; assay type: cell-based, human; conditions: 72 hours at 37° C.
# Experimental: as §1, §2
# NCI/ADR cells = test: as above; assay type: cell-based; conditions: 72 hours at 37° C.
# Experimental: as §1, §2
# [4] = tested on: multidrug resistant M109R lung carcinoma cells; test: as above; assay type: cell-based; conditions: 72 hours at 37° C.
# Experimental: as §1, §2
# [5] = tested on: T-24 bladder cancer cells; test: Cell uptake of doxorubicin and mitomycin C prodrug conjugate; assay type: cell-based, human; conditions: T-24 cells, 3 hours of incubation; doxorubicin 6.5 μmoles/L (3.7 μg/mL), MLP 5 μmoles/L (5.7 μg/mL)
# Experimental: In brief, the liposomal compositions or free doxorubicin were incubated for 3 hours with the cell lines at a doxorubicin concentration of 6.5 μmoles/L (3.7 μg/mL) and final mitomycin C lipid prodrug conjugate concentration of 5 μmoles/L (5.7 μg/mL).
# Cell uptake studies were done as follows. 1×10^6 cells were incubated for 3 hours with the various test agents at a doxorubicin concentration of 6.5 μmoles/mL (3.7 μg/mL) and final mitomycin C lipid prodrug conjugate concentration of 5 μmoles/mL (5.7 μg/mL) and a phospholipid concentration similar to that of liposomes with entrapped doxorubicin (40 nanomoles/mL).
# 4T1 breast tumor = test: Antitumor activity in mouse 4T1 breast tumor model; assay type: in vivo; conditions: BALB/c mice, single i.v. dose eight days after inoculation
# Experimental: BALB/c mice were inoculated intravenously with 100,000 cells 4T1 breast cancer cells to produce tumors. Three were approximately eight tumor-bearing mice in each of the treatment groups.
# Eight days after inoculation, the test formulations were administered intravenously.
# [6] = as mitomycin C concentration, read-out: IC50 of Mitomycin C
# [7] = as doxorubicin concentration, read-out: IC50 of doxorubicin
SMILES,"IC50 [1, 6]","IC50 [2, 6]","IC50 [3, 6]",IC50 (NCI/ADR cells; [6]),"IC50 [4, 6]",Doxorubicin Concentration [5],"IC50 [1, 7]","IC50 [2, 7]","IC50 ([3]; as doxorubicin concentration, read-out: C50 of doxorubicin)",IC50 (NCI/ADR cells; [7]),"IC50 [4, 7]",time after treatment at which tumor approached 5.5 mm (4T1 breast tumor),"tumor growth (FIG. 15), in words (4T1 breast tumor; doses in Example 7)"
"CO[C@@]12[C@H](COC(N)=O)C3=C(C(=O)C(C)=C(N)C3=O)N1C[C@@H]1N[C@@H]12 [free mitomycin C, mitomycin C]",700 nM,180 nM,50 nM,400 nM,300 nM,–,–,–,–,–,–,–,–
"COc1cccc2c1C(=O)c1c(O)c3c(c(O)c1C2=O)C[C@@](O)(C(=O)CO)C[C@@H]3O[C@H]1C[C@H](N)[C@H](O)[C@H](C)O1 [free doxorubicin, doxorubicin]",–,–,–,–,–,739 ng/10^6 cells,1100 nM,190 nM,100 nM,2500 nM,8700 nM,10 days,continued and rapid tumor growth
